Experimental data: patent US20190330224A1, “ACC INHIBITORS AND USES THEREOF” (Gilead Apollo, LLC, priority 2015, published 2019)
≈ marks a conversion by molar mass, not a printed value.

Key:
[1] = compound concentration 10 ppm, foliar spray, evaluated 7 days after inoculation
Human ACC2 = Human ACC2 (Homo sapiens, UniProt O00763); assay: In vitro ACC2 inhibition assay (ADP-Glo), human ACC2; type: biochemical; details: 5 nM ACC2, 20 μM ATP, 20 μM acetyl-CoA
C. albicans ATCC 90028 = assay: Anti-Fungal Activity Assay (broth microtiter MIC), C. albicans; type: cell-based, Candida albicans; details: Candida albicans, ATCC90028, 48 h, 3 replicates; MIC recorded at 48 h; read-out: MIC C. albicans ATCC 90028
Procedure, shortened: (§1)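 MIC by visual comparison with growth control, read at 48 h (soraphen also at 24 h). Inoculum: colonies from overnight Sabouraud dextrose agar plates at 35° C, suspended in RPMI 1640+MOPS, density from standard curves. Microtiter broth dilution per CLSI M27-A3; compounds from 1 mg/mL DMSO stocks.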

C. krusei ATCC 6258 = assay: Anti-Fungal Activity Assay (broth microtiter MIC), C. krusei; type: cell-based, Candida krusei; details: Pichia kudriavzevii, ATCC6258, 48 h, 3 replicates; MIC recorded at 48 h; read-out: MIC C. krusei ATCC 6258
Procedure, shortened: as §1

[2] = system: C. parapsilosis ATCC 22019; assay: Anti-Fungal Activity Assay (broth microtiter MIC), C. parapsilosis; type: cell-based, Candida parapsilosis; details: Lodderomyces parapsilosis, ATCC22019, 48 h, 3 replicates; MIC recorded at 48 h; read-out: MIC C. parapsilosis ATCC 22019
Procedure, shortened: as §1

Botrtyis cinerea (Bc) = assay: Growth inhibition assay of fungal pathogens, Bc; type: cell-based; details: 48 hours; read-out: Concentration at 90% Inhibition, Bc
Procedure: (§2) Compounds of the present invention were evaluated in a growth inhibition assay to determine the ability to control the growth of fungal pathogens, such as Botrtyis cinerea (Bc). Collectotrichum graminicola (Cg), Diplodia maydis (Dm), Fusarium moniliforme (Fm), Fusarium virguliforme (Fv), Phytophthora capsici (Pc), Rhizoctonia solani (Rs), and Septoria tritici (St). Compounds to be tested were dissolved in DMSO at 2.5 mg/ml to produce compound stock solutions (“stocks”). Stocks were diluted with DMSO by a five-fold dilution in a 96-well stock plate, and two sets of final concentrations of 50, 10, and 2 ppm or 2, 0.4, and 0.08 ppm were obtained in vitro. A set of positive controls was also prepared, with various concentrations of Soraphen (2, 0.4, and 0.08 ppm), Metalaxyl (1.1, 0.22, and 0.04 ppm), and Metconazole (2, 0.4, and 0.08 ppm or 0.2, 0.04, and 0.008 ppm) after the five-fold dilutions. Negative controls on each plate included 2% DMSO, water, and a blank (media+2% DMSO). Fungal spores were isolated from previously sub-cultured plates of Botrtyis cinerea (Bc), Collectotrichum graminicola (Cg), Diplodia maydis (Dm), Fusarium moniliforme (Fm), Fusarium virguliforme (Fv), Phytophthora capsici (Pc), and Septoria tritici (St). The isolated spores were diluted to individual concentrations with a 17% V8 liquid media. For Rhizoctonia solani (Rs) and Pythium irregulare, 1.5 mm mycelial plugs were used in place of spores and ¼ Potato Dextrose Broth (PDB) was used for dilution. The spore concentrations and plug sizes were based on growth curves generated at 48 hours for each pathogen. In a second 96-well plate, the spores or mycelial plugs, media, diluted compound solutions, and controls were combined. Once the compound was added, a true final concentration of compound in each well was measured by an OD600 reading, which adjusted for any compound precipitation that might have occurred in the well. Plate readings were repeated at both 24 and 48 hours. The blank negative control was used as a background subtraction. Additional visual ratings were performed at both 24 and 48 hours for checking on precipitation and confirming efficacy. Visual and OD600 ratings of the compounds at 48 hours were compared to the 2% DMSO negative control, and the percent of pathogen growth inhibition was determined based on those values.

[3] = system: Collectotrichum graminicola (Cg); assay: Growth inhibition assay of fungal pathogens, Cg; type: cell-based; details: 48 hours; read-out: Concentration at 90% Inhibition, Cg
Procedure: as §2

Diplodia maydis (Dm) = assay: Growth inhibition assay of fungal pathogens, Dm; type: cell-based; details: Stenocarpella maydis; 48 hours; read-out: Concentration at 90% Inhibition, Dm
Procedure: as §2

[4] = system: Fusarium moniliforme (Fm); assay: Growth inhibition assay of fungal pathogens, Fm; type: cell-based; details: Fusarium verticillioides; 48 hours; read-out: Concentration at 90% Inhibition, Fm
Procedure: as §2

[5] = system: Fusarium virguliforme (Fv); assay: Growth inhibition assay of fungal pathogens, Fv; type: cell-based; details: 48 hours, read-out: Concentration at 90% Inhibition, Fv
Procedure: as §2

[6] = system: Phytophthora capsici (Pc); assay: Growth inhibition assay of fungal pathogens, Pc; type: cell-based; details: 48 hours, read-out: Concentration at 90% Inhibition, Pc
Procedure: as §2

Rhizoctonia solani (Rs) = assay: Growth inhibition assay of fungal pathogens, Rs; type: cell-based; details: 48 hours, read-out: Concentration at 90% Inhibition, Rs
Procedure: as §2

Septoria tritici (St) = assay: Growth inhibition assay of fungal pathogens, St; type: cell-based; details: Zymoseptoria tritici; 48 hours; read-out: Concentration at 90% Inhibition, St
Procedure: as §2

[7] = system: Blumeria graminis f sp. hordei; assay: Foliar protection test, barley powdery mildew control; type: in vivo, Blumeria graminis f sp. hordei on Hordeum vulgare cv. Perry; details: 168 h, compound concentration 50 ppm, foliar spray, evaluated 7 days after inoculation, read-out: Barley Powdery Mildew Control at 50 ppm
Procedure: Compounds of the present invention were evaluated in a foliar protection test to determine the ability to control barley powdery mildew. Plants (Hordeum vulgare cv. Perry) were grown for 6 days in 2-inch square pots containing Metromix 200 medium amended with fertilizer. For propagation, plants were maintained in a growth chamber at conditions of 20 to 21° C., 16 hour light cycle, 400 uM of light, 70% humidity, and with sub-irrigation as needed. After inoculation with the pathogen of Blumeria graminis f sp. hordei, plants were kept at conditions of 20 to 22° C., 70% relative humidity, and 200 uM of light to facilitate infection and disease development. At 6 days after planting (1st true leaf fully expanded), the test compounds were dissolved in a solution of 5% acetone and 0.005% Tween 80 surfactant. An atomizer was used for applying the solution onto both sides of the leaves until thoroughly wetted. The amount of the compound applied to the leaves was typically 200, 100, 50, 10, or 2 ppm, but it may vary. At 24 hours after treatment, the plants were moved to a cooler chamber and inoculated by shaking well-colonized, untreated stock plants above the treated plants. This allowed producing a settling cloud of spores and resulting in uniform infection. Efficacy was evaluated in 7 days later by examining leaves for colonization and growth of mildew. Table 5 lists the results of barley powdery mildew control at a compound concentration of 50 ppm or 10 ppm. Compounds having an activity designated as “AA” provided a compound having >85% control of barley powdery mildew; compounds having an activity designated as “A” provided a compound having from 70% to 84% control of barley powdery mildew; compounds having an activity designated as “B” provided a compound having from 50 to 69% control of barley powdery mildew; compounds having an activity designated as “C” provided a compound having from 25 to 49% control of barley powdery mildew; and compounds having an activity designated as “D” provided a compound having <25% control of barley powdery mildew.

Chain of Human ACC2 (O00763 whole entry): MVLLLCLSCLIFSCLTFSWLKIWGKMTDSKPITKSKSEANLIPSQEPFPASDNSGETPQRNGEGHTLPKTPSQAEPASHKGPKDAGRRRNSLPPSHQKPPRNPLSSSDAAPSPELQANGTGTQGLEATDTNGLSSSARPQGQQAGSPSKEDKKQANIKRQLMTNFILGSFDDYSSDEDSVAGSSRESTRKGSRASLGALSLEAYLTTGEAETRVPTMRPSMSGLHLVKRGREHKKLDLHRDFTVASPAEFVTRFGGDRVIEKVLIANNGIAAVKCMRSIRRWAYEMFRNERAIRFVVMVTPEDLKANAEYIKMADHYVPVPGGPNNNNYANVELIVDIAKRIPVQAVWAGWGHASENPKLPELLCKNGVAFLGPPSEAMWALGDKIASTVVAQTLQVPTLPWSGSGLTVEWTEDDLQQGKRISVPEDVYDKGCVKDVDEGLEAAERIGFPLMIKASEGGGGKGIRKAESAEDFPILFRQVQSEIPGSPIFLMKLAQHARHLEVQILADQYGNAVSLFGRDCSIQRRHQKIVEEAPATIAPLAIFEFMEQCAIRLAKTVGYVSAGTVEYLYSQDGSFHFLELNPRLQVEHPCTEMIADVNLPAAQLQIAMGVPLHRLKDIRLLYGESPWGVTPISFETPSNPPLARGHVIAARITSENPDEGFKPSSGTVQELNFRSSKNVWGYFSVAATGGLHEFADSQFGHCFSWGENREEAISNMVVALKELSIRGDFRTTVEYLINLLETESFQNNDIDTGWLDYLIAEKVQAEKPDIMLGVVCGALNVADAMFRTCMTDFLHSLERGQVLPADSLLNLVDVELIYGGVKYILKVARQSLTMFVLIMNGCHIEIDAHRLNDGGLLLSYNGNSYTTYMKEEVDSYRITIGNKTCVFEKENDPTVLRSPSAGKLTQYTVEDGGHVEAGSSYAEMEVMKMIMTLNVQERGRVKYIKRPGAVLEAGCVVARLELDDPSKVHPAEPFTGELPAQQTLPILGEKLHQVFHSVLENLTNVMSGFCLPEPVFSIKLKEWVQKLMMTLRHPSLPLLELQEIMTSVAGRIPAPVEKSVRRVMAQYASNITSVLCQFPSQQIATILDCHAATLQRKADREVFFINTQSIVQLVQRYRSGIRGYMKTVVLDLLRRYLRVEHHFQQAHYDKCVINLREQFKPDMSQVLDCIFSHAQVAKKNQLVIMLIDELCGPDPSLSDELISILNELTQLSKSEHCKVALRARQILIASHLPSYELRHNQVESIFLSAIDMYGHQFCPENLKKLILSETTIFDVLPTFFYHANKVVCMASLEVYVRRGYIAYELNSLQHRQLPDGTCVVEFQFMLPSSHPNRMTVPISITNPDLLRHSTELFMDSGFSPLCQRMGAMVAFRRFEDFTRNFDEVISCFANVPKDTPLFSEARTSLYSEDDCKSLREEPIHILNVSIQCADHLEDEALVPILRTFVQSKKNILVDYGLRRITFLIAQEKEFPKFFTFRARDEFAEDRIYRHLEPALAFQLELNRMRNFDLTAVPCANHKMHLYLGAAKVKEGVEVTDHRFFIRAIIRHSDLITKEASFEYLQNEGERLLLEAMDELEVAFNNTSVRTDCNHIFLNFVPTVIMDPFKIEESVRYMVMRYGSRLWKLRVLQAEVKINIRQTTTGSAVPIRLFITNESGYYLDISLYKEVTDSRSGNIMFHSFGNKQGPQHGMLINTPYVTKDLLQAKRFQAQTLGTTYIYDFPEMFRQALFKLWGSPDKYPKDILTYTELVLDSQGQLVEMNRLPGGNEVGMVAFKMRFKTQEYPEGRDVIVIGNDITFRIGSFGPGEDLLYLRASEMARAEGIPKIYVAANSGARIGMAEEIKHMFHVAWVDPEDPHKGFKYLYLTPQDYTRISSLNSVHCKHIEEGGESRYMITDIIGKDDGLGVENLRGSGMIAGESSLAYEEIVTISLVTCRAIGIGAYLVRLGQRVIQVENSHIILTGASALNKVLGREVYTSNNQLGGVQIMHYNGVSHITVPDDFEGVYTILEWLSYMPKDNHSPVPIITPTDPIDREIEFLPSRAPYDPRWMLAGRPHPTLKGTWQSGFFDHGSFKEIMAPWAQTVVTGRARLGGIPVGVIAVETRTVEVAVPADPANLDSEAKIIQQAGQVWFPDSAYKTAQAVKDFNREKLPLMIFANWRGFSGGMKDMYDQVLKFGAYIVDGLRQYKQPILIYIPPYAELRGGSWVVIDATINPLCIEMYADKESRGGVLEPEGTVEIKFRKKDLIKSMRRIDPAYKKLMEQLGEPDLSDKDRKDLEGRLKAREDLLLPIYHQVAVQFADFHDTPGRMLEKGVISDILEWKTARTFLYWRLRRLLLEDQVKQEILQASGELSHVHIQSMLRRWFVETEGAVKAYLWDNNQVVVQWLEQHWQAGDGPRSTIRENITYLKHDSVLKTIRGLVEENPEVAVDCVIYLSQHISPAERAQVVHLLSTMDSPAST

| SMILES | Barley Powdery Mildew Control at 10 ppm [1] | IC50 (Human ACC2) [nM] | MIC (C. albicans ATCC 90028) [µg/mL] | MIC (C. krusei ATCC 6258) [µg/mL] | MIC [2] [µg/mL] | IC90 (Botrtyis cinerea (Bc)) [µg/mL] | IC90 [3] [µg/mL] | IC90 (Diplodia maydis (Dm)) [µg/mL] | IC90 [4] [µg/mL] | IC90 [5] [µg/mL] | IC90 [6] [µg/mL] | IC90 (Rhizoctonia solani (Rs)) [µg/mL] | IC90 (Septoria tritici (St)) [µg/mL] | pest or weed control at 50 ppm [7] [%] |
| --- | --- | --- | --- | --- | --- | --- | --- | --- | --- | --- | --- | --- | --- | --- |
| COc1ccc(F)cc1[C@H](Cn1c(=O)n([C@@H]2CCCN(C(C)C)C2=O)c(=O)c2c(C)c(-n3nccn3)sc21)OCCO [Compound I-75, 1-((R)-2-(5-fluoro-2-methoxyphenyl)-2-(2-hydroxy-ethoxy)ethyl)-3-((R)-1-isopropyl-2-oxopiperidin-3-yl)-5-methyl-6-(2H-1,2,3-triazol-2-yl)thieno[2,3-d]pyrimidine-2,4(1H,3H)-dione] | D (provided a compound having <25% control of barley powdery mildew) | 10 to 100 | 2.1 to 4 (≈ 3.5 to 6.66 µM) | 2.1 to 4 (≈ 3.5 to 6.66 µM) | 2.1 to 4 (≈ 3.5 to 6.66 µM) | 2 (≈ 3.33 µM) | 10 (≈ 16.6 µM) | 10 (≈ 16.6 µM) | 2 (≈ 3.33 µM) | 10 (≈ 16.6 µM) | > 50 | 2 (≈ 3.33 µM) | > 50 | 50 to 69 |
| COc1ccc(F)cc1[C@H](Cn1c(=O)n([C@H]2CCN(C(C)C)C2=O)c(=O)c2c(C)c(-n3nccn3)sc21)OCCO [Compound I-84, 1-((R)-2-(5-fluoro-2-methoxyphenyl)-2-(2-hydroxy-ethoxy)ethyl)-3-((S)-1-isopropyl-2-oxopyrrolidin-3-yl)-5-methyl-6-(2H-1,2,3-triazol-2-yl)thieno[2,3-d]pyrimidine-2.4(1H,3H)-dione] | D (provided a compound having <25% control of barley powdery mildew) | 2 to 10 | 2.1 to 4 (≈ 3.58 to 6.82 µM) | 2.1 to 4 (≈ 3.58 to 6.82 µM) | 2.1 to 4 (≈ 3.58 to 6.82 µM) | 2 (≈ 3.41 µM) | 2 (≈ 3.41 µM) | 10 (≈ 17 µM) | 2 (≈ 3.41 µM) | 2 (≈ 3.41 µM) | > 50 | 2 (≈ 3.41 µM) | > 50 | 50 to 69 |
| COc1ccc(F)cc1[C@H](Cn1c(=O)n([C@@H]2CCN(C(C)C)C2=O)c(=O)c2c(C)c(-n3nccn3)sc21)OCCO [Compound I-85, 1-((R)-2-(5-fluoro-2-methoxyphenyl)-2-(2-hydroxy-ethoxy)ethyl)-3-((S)-1-isopropyl-2-oxopyrrolidin-3-yl)-5-methyl-6-(2H-1,2,3-triazol-2-1)thieno[2,3-d]pyrimidine-2,4(1H,3H)-dione] | C (provided a compound having from 25 to 49% control of barley powdery mildew) | 10 to 100 | 2.1 to 4 (≈ 3.58 to 6.82 µM) | 2.1 to 4 (≈ 3.58 to 6.82 µM) | 2.1 to 4 (≈ 3.58 to 6.82 µM) | 2 (≈ 3.41 µM) | 2 (≈ 3.41 µM) | 2 (≈ 3.41 µM) | 2 (≈ 3.41 µM) | 2 (≈ 3.41 µM) | > 50 | 2 (≈ 3.41 µM) | > 50 | 70 to 84 |
